# Source: patent US6979686B1, “Substituted pyrazoles as p38 kinase inhibitors” (Pharmacia Corporation, priority 2001, dated 2005)
# Where two headings read alike, the source gives them in different places.
# Biological target: T1, human p38 kinase alpha (Homo sapiens, UniProt Q16539)
# T1 construct: GST (N, cleaved yes); made in house; host or cells: E. coli DH10B
# Experiment: p38 kinase in vitro assay, phosphorylation of biotinylated PHAS-I with 32P-ATP
# Assay type: biochemical
# [1] = in vitro P38-alpha kinase, read-out: P38 alpha kinase IC50
# [2] = in vitro P38-alpha kinase inhibition, read-out: P38 alpha kinase IC50
# [3] = activated human p38 kinase alpha, PHAS-I substrate, 50 μM unlabeled ATP, read-out: p38 kinase IC50
# T1 sequence (Q16539 whole entry): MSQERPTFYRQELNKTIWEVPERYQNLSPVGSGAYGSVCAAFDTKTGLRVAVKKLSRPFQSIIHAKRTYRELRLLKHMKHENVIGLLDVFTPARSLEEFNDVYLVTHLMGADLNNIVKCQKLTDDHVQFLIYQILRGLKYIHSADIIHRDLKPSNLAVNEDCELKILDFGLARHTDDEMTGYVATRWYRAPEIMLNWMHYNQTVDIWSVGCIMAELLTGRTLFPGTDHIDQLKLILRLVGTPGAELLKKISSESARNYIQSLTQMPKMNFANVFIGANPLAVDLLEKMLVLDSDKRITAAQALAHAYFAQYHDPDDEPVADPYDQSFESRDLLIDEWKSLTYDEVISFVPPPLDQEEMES
SMILES,IC50 [1] [nM],IC50 [2] [nM],other results
O=S(=O)(NC(Cc1ccccc1)c1[nH]nc(-c2ccc(F)cc2)c1-c1ccncc1)c1ccc(F)cc1 (stereo not shown) [Example B-0707],–,1700,–
Cc1c(-c2ccncc2)c(-c2ccc(F)cc2)nn1CC(=O)Nc1cc(F)cc(F)c1 [Example B-2438],–,–,"P38 alpha kinase IC50, uM or % inhib @ conc. (uM): % inhib (@ 10.0 uM): 75.0% @"
CC(=O)Nc1nc(C)c(S(=O)(=O)NC(C)c2[nH]nc(-c3ccc(F)cc3)c2-c2ccncc2)s1 (stereo not shown) [Example B-0607],–,2790,–
O=S(=O)(NCCc1[nH]nc(-c2ccc(F)cc2)c1-c1ccncc1)c1cccc(Cl)c1 [Example B-1090],–,< 100,–
COc1cccc(CC(=O)NC(Cc2ccccc2)c2[nH]nc(-c3ccc(F)cc3)c2-c2ccncc2)c1 (stereo not shown) [Example B-0817],–,3070,–
O=C(NC(Cc1ccccc1)c1[nH]nc(-c2ccc(F)cc2)c1-c1ccncc1)c1ccccc1 (stereo not shown) [Example B-0851],–,910,–
O=C(Cc1cccs1)NC(Cc1ccccc1)c1[nH]nc(-c2ccc(F)cc2)c1-c1ccncc1 (stereo not shown) [Example B-0745],–,6000,–
O=C(NC(Cc1ccccc1)c1[nH]nc(-c2ccc(F)cc2)c1-c1ccncc1)c1ccncc1 (stereo not shown) [Example B-0822],–,1330,–
COc1ccc(NC(=O)NCCCc2[nH]nc(-c3ccc(F)cc3)c2-c2ccncc2)cc1 [Example B-1224],–,–,P38 alpha kinase % inhib @ conc. (@ 1.0 uM): 82.0% @
CC(NS(=O)(=O)c1cc(Cl)ccc1Cl)c1[nH]nc(-c2ccc(F)cc2)c1-c1ccncc1 (stereo not shown) [Example B-0615],–,80,–
CSc1ccccc1NC(=O)Cn1nc(-c2ccc(F)cc2)c(-c2ccncc2)c1C [Example B-2428],–,–,"P38 alpha kinase IC50, uM or % inhib @ conc. (uM): % inhib (@ 10.0 uM): 82.0% @"
C=CCNC(=O)NCCCc1[nH]nc(-c2ccc(F)cc2)c1-c1ccncc1 [Example B-1217],–,–,P38 alpha kinase % inhib @ conc. (@ 1.0 uM): 87.0% @
COc1ccc(NC(=O)NC(Cc2ccccc2)c2[nH]nc(-c3ccc(F)cc3)c2-c2ccncc2)c(OC)c1 (stereo not shown) [Example B-0744],–,23000,–
Cc1c(-c2ccncc2)c(-c2ccc(F)cc2)nn1CC(=O)Nc1ccccc1C(C)(C)C [Example B-2435],–,–,"P38 alpha kinase IC50, uM or % inhib @ conc. (uM): % inhib (@ 10.0 uM): 84.0% @"
COc1ccc(CC(=O)NCCc2[nH]nc(-c3ccc(F)cc3)c2-c2ccncc2)cc1 [Example B-1000],–,–,P38 alpha kinase % inhib @ conc. (uM) (@ 1.0 uM): 55.0% @
Cc1c(-c2ccncc2)c(-c2ccc(F)cc2)nn1CC(=O)Nc1ccccc1C(=O)OC(C)C [Example B-2454],–,–,"P38 alpha kinase IC50, uM or % inhib @ conc. (uM): % inhib (@ 10.0 uM): 88.0% @"
Cc1cccc(-c2n[nH]c(-c3cccc(C)c3)c2-c2ccncc2)c1 [Example A-28],–,–,IC50 [3]: 300 nM
O=S(=O)(NC(Cc1ccccc1)c1[nH]nc(-c2ccc(F)cc2)c1-c1ccncc1)c1cccs1 (stereo not shown) [Example B-0720],–,1300,–
CCCCOc1ccc(S(=O)(=O)NC(C)c2[nH]nc(-c3ccc(F)cc3)c2-c2ccncc2)cc1 (stereo not shown) [Example B-0456],–,1310,–
CC(NS(=O)(=O)C(F)(F)F)c1[nH]nc(-c2ccc(F)cc2)c1-c1ccncc1 (stereo not shown) [Example B-0568],–,1220,–
COc1ccc(NC(=O)NCCCc2[nH]nc(-c3ccc(F)cc3)c2-c2ccncc2)c(OC)c1 [Example B-1227],–,–,P38 alpha kinase % inhib @ conc. (@ 1.0 uM): 83.0% @

SMILES,IC50 [1] [nM],IC50 [2] [nM],other results
COc1ccc(C(=O)NCc2[nH]nc(-c3ccc(F)cc3)c2-c2ccncc2)cc1 [Example B-0039],–,–,"inhibition at 1 µM (@ 1.0 uM, read-out: P38 alpha kinase % inhib @ conc.): 89%"
COc1ccc(OC)c(S(=O)(=O)NC(C)c2[nH]nc(-c3ccc(F)cc3)c2-c2ccncc2)c1 (stereo not shown) [Example B-0634],–,600,–
Cc1c(-c2ccncc2)c(-c2ccc(F)cc2)nn1CC(=O)NC1CCCCCC1 [Example B-2335],–,–,P38 alpha kinase % inhib @ conc. (@ 10.0 uM): 82.0% @
CCN1CC(NC(=O)Cn2nc(-c3ccc(F)cc3)c(-c3ccncc3)c2C)CN1CC [Example B-2357],–,–,P38 alpha kinase % inhib @ conc. (@ 10.0 uM): 47.0% @
C[C@@H](NS(=O)(=O)/C=C/c1ccccc1)c1[nH]nc(-c2ccc(F)cc2)c1-c1ccncc1 [Example B-0388],< 100,–,–
CC(NC(=O)C1CCCN1)c1[nH]nc(-c2ccc(F)cc2)c1-c1ccncc1 (stereo not shown) [Example B-0605],–,180,–
CSc1cccc(NC(=O)NCCc2[nH]nc(-c3ccc(F)cc3)c2-c2ccncc2)c1 [Example B-0933],–,–,P38 alpha kinase % inhib @ conc. (uM) (@ 1.0 uM): 47.0% @
O=C(NC(Cc1ccccc1)c1[nH]nc(-c2ccc(F)cc2)c1-c1ccncc1)c1ccccc1I (stereo not shown) [Example B-0798],–,1730,–
CCCS(=O)(=O)NCCc1[nH]nc(-c2ccc(F)cc2)c1-c1ccncc1 [Example B-1021],–,–,P38 alpha kinase % inhib @ conc. (uM) (@ 1.0 uM): 82.0% @
COc1ccc(OC)c(NC(=O)Cn2nc(-c3ccc(F)cc3)c(-c3ccncc3)c2C)c1 [Example B-2431],–,–,"P38 alpha kinase IC50, uM or % inhib @ conc. (uM): % inhib (@ 10.0 uM): 85.0% 2"
O=S(=O)(NC(Cc1ccccc1)c1[nH]nc(-c2ccc(F)cc2)c1-c1ccncc1)C(F)(F)F (stereo not shown) [Example B-0758],–,1500,–
CCN(CC)C1CCN(C(=O)Cn2nc(-c3ccc(F)cc3)c(-c3ccncc3)c2C)C1 (stereo not shown) [Example B-2391],–,–,"P38 alpha kinase IC50, uM or % inhib @ conc. (uM): % inhib (@ 10.0 uM): 40.0% @"
Cc1c(-c2ccncc2)c(-c2ccc(F)cc2)nn1CC(=O)NC(C)c1ccc(Br)cc1 (stereo not shown) [Example B-2344],–,–,P38 alpha kinase % inhib @ conc. (@ 10.0 uM): 71.0% @
Cc1c(C)c(S(=O)(=O)NCCc2[nH]nc(-c3ccc(F)cc3)c2-c2ccncc2)c(C)c2c1OC(C)(C)CC2 [Example B-1110],–,470,–
Cc1cc(C)cc(-c2n[nH]c(C)c2-c2ccncc2)c1 [Example A-34],–,–,IC50 [3]: 8000 nM
O=C(NCCc1[nH]nc(-c2ccc(F)cc2)c1-c1ccncc1)c1ccccn1 [Example B-1007],–,–,P38 alpha kinase % inhib @ conc. (uM) (@ 1.0 uM): 52.0% @
CC(C)C(=O)NCCc1[nH]nc(-c2ccc(F)cc2)c1-c1ccncc1 [Example B-0983],–,–,P38 alpha kinase % inhib @ conc. (uM) (@ 1.0 uM): 75.0% @
CNC(=O)CCC(NC(=O)c1ccc(F)cc1)c1[nH]nc(-c2ccc(F)cc2)c1-c1ccncc1 (stereo not shown) [Example B-0862],–,2150,–
CCCS(=O)(=O)NC(C)c1[nH]nc(-c2ccc(F)cc2)c1-c1ccncc1 (stereo not shown) [Example B-0570],–,270,–
O=C(NC(Cc1ccccc1)c1[nH]nc(-c2ccc(F)cc2)c1-c1ccncc1)c1cccnc1 (stereo not shown) [Example B-0821],–,1440,–
O=S(=O)(Cc1ccccc1)NC(Cc1ccccc1)c1[nH]nc(-c2ccc(F)cc2)c1-c1ccncc1 (stereo not shown) [Example B-0756],–,940,–

# Second part, led by results:
IC50 [1] [nM],IC50 [2] [nM],SMILES,other results
5,–,O=C(c1ccccc1I)N1CCC(c2[nH]nc(-c3ccc(F)cc3)c2-c2ccncc2)CC1 [Example B-1359],–
39,–,O=S(=O)(NCCCc1[nH]nc(-c2ccc(F)cc2)c1-c1ccncc1)c1ccc2ccccc2c1 [Example B-1280],–
97,–,O=C(c1ccc(F)cc1F)N1CCC(c2[nH]nc(-c3ccc(F)cc3)c2-c2ccncc2)CC1 [Example B-1412],–
43,–,O=C(NCCCc1[nH]nc(-c2ccc(F)cc2)c1-c1ccncc1)c1cccc(F)c1 [Example B-1346],–
660,–,Cc1c(-c2ccncc2)c(-c2ccc(F)cc2)nn1CC(=O)NCCc1csc2ccccc12 [Example B-2308],–
68,–,O=C(NCCCc1[nH]nc(-c2ccc(F)cc2)c1-c1ccncc1)c1ccccc1F [Example B-1351],–
1180,–,O=S(=O)(c1cccc(F)c1)N1CCC(c2[nH]nc(-c3ccc(F)cc3)c2-c2ccncc2)CC1 [Example B-1464],–
25,–,O=C(c1ccc(F)c(F)c1)N1CCC(c2[nH]nc(-c3ccc(F)cc3)c2-c2ccncc2)CC1 [Example B-1414],–
460,–,O=S(=O)(NCCCc1[nH]nc(-c2ccc(F)cc2)c1-c1ccncc1)c1cc(Cl)cc(Cl)c1 [Example B-1269],–
360,–,CCCS(=O)(=O)N1CCC(c2[nH]nc(-c3ccc(F)cc3)c2-c2ccncc2)CC1 [Example B-1431],–
< 100,–,O=C(c1ccc(F)cc1C(F)(F)F)N1CCC(c2[nH]nc(-c3ccc(F)cc3)c2-c2ccncc2)CC1 [Example B-1410],–
–,2550,O=C(NCCc1[nH]nc(-c2ccc(F)cc2)c1-c1ccncc1)c1cccc2ccccc12 [Example B-1128],–
< 100,–,O=C(c1cccc(F)c1F)N1CCC(c2[nH]nc(-c3ccc(F)cc3)c2-c2ccncc2)CC1 [Example B-1411],–
1950,–,O=S(=O)(c1ccccc1)c1ccc(S(=O)(=O)N2CCC(c3[nH]nc(-c4ccc(F)cc4)c3-c3ccncc3)CC2)s1 [Example B-1441],–
30,–,CC(C)C(=O)N1CCC(c2[nH]nc(-c3ccc(F)cc3)c2-c2ccncc2)CC1 [Example B-1361],–
290,–,Cc1c(-c2ccncc2)c(-c2ccc(F)cc2)nn1CC(=O)NCC(=O)OC(C)(C)C [Example B-2309],–
1790,–,COC(=O)CCCNC(=O)Cn1nc(-c2ccc(F)cc2)c(-c2ccncc2)c1C [Example B-2295],–
800,–,COc1ccc(CNC(=O)Cn2nc(-c3ccc(F)cc3)c(-c3ccncc3)c2C)c(OC)c1 [Example B-2278],–
260,–,O=S(=O)(NCCCc1[nH]nc(-c2ccc(F)cc2)c1-c1ccncc1)c1ccc(-c2ccon2)s1 [Example B-1290],–
16,–,O=C(c1ccncc1)N1CCC(c2[nH]nc(-c3ccc(F)cc3)c2-c2ccncc2)CC1 [Example B-1373],–
38,–,Cc1ccc(S(C)(=O)=O)cc1S(=O)(=O)NCCCc1[nH]nc(-c2ccc(F)cc2)c1-c1ccncc1 [Example B-1296],–
–,470,O=C(NCCc1[nH]nc(-c2ccc(F)cc2)c1-c1ccncc1)c1ccccc1F [Example B-1150],–
2160,–,Cc1c(-c2ccncc2)c(-c2ccc(F)cc2)nn1CC(=O)NCc1ccc(N(C)C)cc1 [Example B-2275],–
3,–,C=CCOC(=O)N1CCC(c2[nH]nc(-c3ccc(F)cc3)c2-c2ccncc2)CC1 [Example B-1362],–
–,580,O=S(=O)(NCCc1[nH]nc(-c2ccc(F)cc2)c1-c1ccncc1)c1cc(S(=O)(=O)c2ccccc2)cs1 [Example B-1112],–
250,–,Cc1c(C)c(S(=O)(=O)NCCCc2[nH]nc(-c3ccc(F)cc3)c2-c2ccncc2)c(C)c2c1OC(C)(C)CC2 [Example B-1287],–
2930,–,CCSCCNC(=O)Cn1nc(-c2ccc(F)cc2)c(-c2ccncc2)c1C [Example B-2312],–
–,260,Cc1noc(C)c1C(=O)NCCc1[nH]nc(-c2ccc(F)cc2)c1-c1ccncc1 [Example B-1157],–
